According to ChEMBL document CHEMBL5038618, “Discovery of PT-65 as a highly potent and selective Proteolysis-targeting chimera degrader of GSK3 for treating Alzheimer's disease” (Eur J Med Chem, 2021):

Columns and labels:
[1] = molecular target: T1, Protein cereblon/Glycogen synthase kinase-3 alpha (Homo sapiens, UniProt P49840+Q96SW2); assay: Protac activity at CRBN/GSK3alpha in human SH-SY5Y cells assessed as induction of GSK3alpha protein degradation at 1 uM measured after 24 hrs; assay type: cell-based
Target sequence in this assay (P49840 2-483 limits assumed): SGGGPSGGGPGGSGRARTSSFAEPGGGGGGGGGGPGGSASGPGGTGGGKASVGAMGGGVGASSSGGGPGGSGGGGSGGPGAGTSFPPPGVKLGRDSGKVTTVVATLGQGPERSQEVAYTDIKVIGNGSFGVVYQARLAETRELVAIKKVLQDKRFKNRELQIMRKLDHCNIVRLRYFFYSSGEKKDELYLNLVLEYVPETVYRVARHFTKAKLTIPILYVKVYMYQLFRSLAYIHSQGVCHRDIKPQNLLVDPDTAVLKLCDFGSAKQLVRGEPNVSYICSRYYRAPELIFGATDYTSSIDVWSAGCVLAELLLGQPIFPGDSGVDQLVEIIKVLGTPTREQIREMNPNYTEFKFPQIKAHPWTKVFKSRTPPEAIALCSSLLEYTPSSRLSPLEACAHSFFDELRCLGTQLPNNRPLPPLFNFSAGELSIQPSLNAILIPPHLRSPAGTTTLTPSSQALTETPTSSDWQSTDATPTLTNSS
Target sequence in this assay (Q96SW2 whole entry partner): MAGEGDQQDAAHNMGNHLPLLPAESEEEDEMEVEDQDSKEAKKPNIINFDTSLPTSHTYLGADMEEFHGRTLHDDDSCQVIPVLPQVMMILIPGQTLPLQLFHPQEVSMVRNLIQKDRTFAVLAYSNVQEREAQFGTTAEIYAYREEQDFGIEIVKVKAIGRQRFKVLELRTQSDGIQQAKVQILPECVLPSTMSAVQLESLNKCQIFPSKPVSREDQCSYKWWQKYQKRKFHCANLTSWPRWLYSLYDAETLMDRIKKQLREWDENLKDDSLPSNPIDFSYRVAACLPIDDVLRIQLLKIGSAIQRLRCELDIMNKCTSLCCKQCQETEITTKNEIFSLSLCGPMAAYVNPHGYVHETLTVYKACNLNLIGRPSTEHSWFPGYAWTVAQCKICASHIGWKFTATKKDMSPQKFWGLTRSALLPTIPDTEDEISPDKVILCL

[2] = molecular target: T1, Protein cereblon/Glycogen synthase kinase-3 alpha; assay: Protac activity at CRBN/GSK3alpha in human SH-SY5Y cells assessed as induction of GSK3alpha protein degradation at 10 uM measured after 24 hrs; assay type: cell-based
Target sequence in this assay (P49840 2-483 limits assumed): as the sequence (P49840 2-483 limits assumed) above
Target sequence in this assay (Q96SW2 whole entry partner): as the sequence (Q96SW2 whole entry partner) above

[3] = molecular target: T2, Protein cereblon/Glycogen synthase kinase-3 beta (Homo sapiens, UniProt P49841+Q96SW2); assay: Protac activity at CRBN/GSK3beta in human SH-SY5Y cells assessed as induction of GSK3beta degradation at 10 uM measured after 24 hrs; assay type: cell-based
Target sequence in this assay (P49841 whole entry, looked up): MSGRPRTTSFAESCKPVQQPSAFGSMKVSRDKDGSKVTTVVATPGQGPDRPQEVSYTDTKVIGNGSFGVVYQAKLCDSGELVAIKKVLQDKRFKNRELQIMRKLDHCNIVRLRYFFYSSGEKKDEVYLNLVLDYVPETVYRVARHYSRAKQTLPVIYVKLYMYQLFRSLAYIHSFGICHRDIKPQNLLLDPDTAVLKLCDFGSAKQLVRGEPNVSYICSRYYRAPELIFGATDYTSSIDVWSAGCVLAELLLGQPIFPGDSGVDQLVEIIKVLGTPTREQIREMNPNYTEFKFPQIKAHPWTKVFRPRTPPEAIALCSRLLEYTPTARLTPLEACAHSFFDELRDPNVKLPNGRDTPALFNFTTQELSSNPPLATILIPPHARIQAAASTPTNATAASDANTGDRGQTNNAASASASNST
Target sequence in this assay (Q96SW2 whole entry, looked up): as the sequence (Q96SW2 whole entry partner) above

[4] = molecular target: T2, Protein cereblon/Glycogen synthase kinase-3 beta; assay: Protac activity at CRBN/GSK3beta in human SH-SY5Y cells assessed as induction of GSK3beta degradation at 1 uM measured after 24 hrs; assay type: cell-based
Target sequence in this assay (P49841 whole entry, looked up): as the sequence (P49841 whole entry, looked up) above
Target sequence in this assay (Q96SW2 whole entry, looked up): as the sequence (Q96SW2 whole entry partner) above

[5] = molecular target: T1, Protein cereblon/Glycogen synthase kinase-3 alpha; assay: Protac activity at CRBN/GSK3alpha in human SH-SY5Y cells assessed as induction of GSK3alpha degradation at 0.1 uM measured after 24 hrs; assay type: cell-based
Target sequence in this assay (P49840 2-483 limits assumed): as the sequence (P49840 2-483 limits assumed) above
Target sequence in this assay (Q96SW2 whole entry partner): as the sequence (Q96SW2 whole entry partner) above

[6] = molecular target: T2, Protein cereblon/Glycogen synthase kinase-3 beta; assay: Protac activity at CRBN/GSK3beta in human SH-SY5Y cells assessed as induction of GSK3beta degradation at 0.1 uM measured after 24 hrs; assay type: cell-based
Target sequence in this assay (P49841 whole entry, looked up): as the sequence (P49841 whole entry, looked up) above
Target sequence in this assay (Q96SW2 whole entry, looked up): as the sequence (Q96SW2 whole entry partner) above

SH-SY5Y [7] = assay: Induction of apoptosis in human SH-SY5Y cells assessed as late apoptotic cells at 10 uM preincubated for 2 hrs followed by coincubation with Abeta42 and measured after 72 hrs by Annexin V-FITC/propidium iodide staining based flow cytometry (Rvb=3.5%); assay type: functional; conditions: time 74 hrs
SH-SY5Y [8] = assay: Induction of apoptosis in human SH-SY5Y cells assessed as early apoptotic cells at 10 uM preincubated for 2 hrs followed by coincubation with Abeta42 and measured after 72 hrs by Annexin V-FITC/propidium iodide staining based flow cytometry (Rvb=1%); assay type: functional; conditions: time 74 hrs
SH-SY5Y [9] = assay: Induction of apoptosis in human SH-SY5Y cells assessed as live cells at 10 uM preincubated for 2 hrs followed by coincubation with Abeta42 and measured after 72 hrs by Annexin V-FITC/propidium iodide staining based flow cytometry (Rvb=94.8%); assay type: functional; conditions: time 74 hrs
SH-SY5Y [10] = assay: Induction of apoptosis in human SH-SY5Y cells assessed as necrotic cells at 10 uM preincubated for 2 hrs followed by coincubation with Abeta42 and measured after 72 hrs by Annexin V-FITC/propidium iodide staining based flow cytometry (Rvb=0.7%); assay type: functional; conditions: time 74 hrs
[11] = molecular target: T1, Protein cereblon/Glycogen synthase kinase-3 alpha; assay: Protac activity at CRBN/GSK3alpha in human SH-SY5Y cells assessed as induction of GSK3alpha protein degradation measured after 24 hrs; assay type: cell-based
Target sequence in this assay (P49840 whole entry): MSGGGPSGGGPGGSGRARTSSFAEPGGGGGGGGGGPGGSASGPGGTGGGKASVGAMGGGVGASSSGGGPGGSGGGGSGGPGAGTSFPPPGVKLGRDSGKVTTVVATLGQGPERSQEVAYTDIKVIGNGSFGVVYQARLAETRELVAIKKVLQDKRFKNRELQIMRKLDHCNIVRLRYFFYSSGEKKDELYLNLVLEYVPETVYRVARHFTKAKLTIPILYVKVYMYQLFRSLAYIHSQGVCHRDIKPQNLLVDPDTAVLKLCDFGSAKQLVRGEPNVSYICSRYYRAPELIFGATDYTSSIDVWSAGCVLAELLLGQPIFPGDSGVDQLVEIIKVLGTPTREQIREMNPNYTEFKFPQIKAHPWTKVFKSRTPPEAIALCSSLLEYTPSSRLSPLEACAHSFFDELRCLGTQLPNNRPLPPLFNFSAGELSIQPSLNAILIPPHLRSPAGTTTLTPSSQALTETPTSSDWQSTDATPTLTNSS
Target sequence in this assay (Q96SW2 whole entry): as the sequence (Q96SW2 whole entry partner) above

[12] = molecular target: T2, Protein cereblon/Glycogen synthase kinase-3 beta; assay: Protac activity at CRBN/GSK3beta in human SH-SY5Y cells assessed as induction of GSK3beta degradation measured after 24 hrs; assay type: cell-based
Target sequence in this assay (P49841 whole entry): as the sequence (P49841 whole entry, looked up) above
Target sequence in this assay (Q96SW2 whole entry): as the sequence (Q96SW2 whole entry partner) above

COc1ccc(-c2ocnc2C(=O)NCCCn2cc(COCCOCCOCCOc3cccc4c3CN(C3CCC(=O)NC3=O)C4=O)nn2)cc1Cl (stereo not given)
Activity [1]: 38.7%
Activity [2]: 76.4%
Activity [3]: 37.3%
Activity [4]: 14.5%

Nc1ncc(-c2ccc(S(=O)(=O)N3CCN(Cc4cn(CCOCCOCCNc5cccc6c5C(=O)N(C5CCC(=O)NC5=O)C6=O)nn4)CC3)cc2)nc1C(=O)Nc1cccnc1 (stereo not given)
Activity [1]: 68.9%
Activity [5]: 46.9%
Activity [6]: 30.5%
Activity [4]: 39.6%

COc1ccc(-c2ocnc2C(=O)NCCCc2cn(CCOCCOCCNc3cccc4c3C(=O)N(C3CCC(=O)NC3=O)C4=O)nn2)cc1I (stereo not given)
Activity [1]: 46.1%
Activity [4]: 25.5%

Nc1ncc(-c2ccc(S(=O)(=O)N3CCN(CCc4cn(CCOCCOCCNc5cccc6c5C(=O)N(C5CCC(=O)NC5=O)C6=O)nn4)CC3)cc2)nc1C(=O)Nc1cccnc1 (stereo not given)
Activity [1]: 95.2%
Activity [5]: 61.1%
Activity [6]: 41.9%
Activity [4]: 79.5%

COc1ccc(-c2ocnc2C(=O)NCCCc2cn(CCOCCOCCOCCNC(=O)CNc3cccc4c3CN(C3CCC(=O)NC3=O)C4=O)nn2)cc1Cl (stereo not given)
Activity [1]: < 5%
Activity [2]: < 5%
Activity [3]: 35.8%
Activity [4]: < 5%

Nc1ncc(-c2ccc(S(=O)(=O)N3CCN(Cc4cn(CCOCCOCCOCCOCCOCCNc5cccc6c5C(=O)N(C5CCC(=O)NC5=O)C6=O)nn4)CC3)cc2)nc1C(=O)Nc1cccnc1 (stereo not given)
Activity [1]: 77.2%
Activity [2]: 65.9%
Activity [5]: 47.4%
Activity [6]: 28.9%
Activity [3]: 74.5%
Activity [4]: 63.8%

COc1ccc(-c2ocnc2C(=O)NCCCc2cn(CCOCCOCCOCCOCCOCCOCCNc3cccc4c3C(=O)N(C3CCC(=O)NC3=O)C4=O)nn2)cc1Cl (stereo not given)
Activity [1]: 60.7%
Activity [4]: 88.8%

Cn1sc(=O)n(Cc2ccccc2)c1=O
Activity (SH-SY5Y [7]): 5.3%
Activity (SH-SY5Y [8]): 1.3%
Activity (SH-SY5Y [9]): 92.4%
Activity (SH-SY5Y [10]): 1.1%

Nc1ncc(-c2ccc(S(=O)(=O)N3CCN(Cc4cn(CCOCCOCCOCCOCCOCCOCCNc5cccc6c5C(=O)N(C5CCC(=O)NC5=O)C6=O)nn4)CC3)cc2)nc1C(=O)Nc1cccnc1 (stereo not given)
Activity [1]: 75.4%
Activity [5]: 29.7%
Activity [6]: 15.2%
Activity [4]: 61.3%

Nc1ncc(-c2ccc(S(=O)(=O)N3CCN(CCc4cn(CCOCCOCCOCCOCCOCCOCCNc5cccc6c5C(=O)N(C5CCC(=O)NC5=O)C6=O)nn4)CC3)cc2)nc1C(=O)Nc1cccnc1 (stereo not given)
Activity [1]: 93.9%
Activity [5]: 66.3%
Activity [6]: 55.9%
Activity [4]: 86%

Nc1ncc(-c2ccc(S(=O)(=O)N3CCN(Cc4cn(CCOCCOCCOCCNc5cccc6c5C(=O)N(C5CCC(=O)NC5=O)C6=O)nn4)CC3)cc2)nc1C(=O)Nc1cccnc1 (stereo not given)
Activity [1]: 75.6%
Activity [2]: 86.4%
Activity [5]: 45.4%
Activity [6]: 29.9%
Activity [3]: 80.2%
Activity [4]: 46.6%

Nc1ncc(-c2ccc(S(=O)(=O)N3CCN(CCc4cn(CCOCCOCCOCCOCCNc5cccc6c5C(=O)N(C5CCC(=O)NC5=O)C6=O)nn4)CC3)cc2)nc1C(=O)Nc1cccnc1 (stereo not given)
Activity [1]: 91.8%
Activity [5]: 63.8%
Activity [6]: 55.9%
Activity [4]: 83.1%

Nc1ncc(-c2ccc(S(=O)(=O)N3CCN(CCc4cn(CCOCCOCCOCCOCCOCCNc5cccc6c5C(=O)N(C5CCC(=O)NC5=O)C6=O)nn4)CC3)cc2)nc1C(=O)Nc1cccnc1 (stereo not given)
Activity [1]: 87.8%
Activity [5]: 68.1%
Activity [6]: 61.6%
Activity [4]: 81.3%

COc1ccc(-c2ocnc2C(=O)NCCCc2cn(CCOCCOCCOCCOCCOCCOCCNc3cccc4c3C(=O)N(C3CCC(=O)NC3=O)C4=O)nn2)cc1I (stereo not given)
Activity [1]: 25.2%
Activity [4]: 50.1%

Nc1ncc(-c2ccc(S(=O)(=O)N3CCN(CCCCc4cn(CCOCCOCCOCCOCCNc5cccc6c5C(=O)N(C5CCC(=O)NC5=O)C6=O)nn4)CC3)cc2)nc1C(=O)Nc1cccnc1 (stereo not given)
DC50 [11]: 0.0382 µM
Activity [1]: 90.3%
Activity [5]: 68.5%
Activity [6]: 63.7%
DC50 [12]: 0.11 µM
Activity [4]: 84.4%

COc1ccc(-c2ocnc2C(=O)NCCCc2cn(CCOCCOCCOCCNc3cccc4c3C(=O)N(C3CCC(=O)NC3=O)C4=O)nn2)cc1Cl (stereo not given)
Activity [1]: 62.4%
Activity [2]: 89.9%
Activity [3]: 73.3%
Activity [4]: 36.8%

COc1ccc(-c2ocnc2C(=O)NCCCn2cc(COCCOCCOCCOCC(=O)N[C@@H](C(=O)N3C[C@H](O)C[C@H]3C(=O)NCc3ccc(-c4scnc4C)cc3)C(C)(C)C)nn2)cc1Cl
Activity [1]: < 5%
Activity [2]: < 5%
Activity [3]: < 5%
Activity [4]: < 5%

COc1ccc(-c2ocnc2C(=O)NCCCn2cc(CCCCC(=O)N[C@@H](C(=O)N3C[C@H](O)C[C@H]3C(=O)NCc3ccc(-c4scnc4C)cc3)C(C)(C)C)nn2)cc1Cl
Activity [1]: < 5%
Activity [2]: < 5%
Activity [3]: < 5%
Activity [4]: < 5%

Nc1ncc(-c2ccc(S(=O)(=O)N3CCN(Cc4cn(CCOCCOCCOCCOCCNc5cccc6c5C(=O)N(C5CCC(=O)NC5=O)C6=O)nn4)CC3)cc2)nc1C(=O)Nc1cccnc1 (stereo not given)
Activity [1]: 79.5%
Activity [5]: 42%
Activity [6]: 25.7%
Activity [4]: 65%

COc1ccc(-c2ocnc2C(=O)NCCCc2cn(CCOCCOCCNc3cccc4c3C(=O)N(C3CCC(=O)NC3=O)C4=O)nn2)cc1Cl (stereo not given)
Activity [1]: 43.8%
Activity [4]: 28.2%

COc1ccc(-c2ocnc2C(=O)NCCCc2cn(CCOCCOCCOCCOCCOCCNc3cccc4c3C(=O)N(C3CCC(=O)NC3=O)C4=O)nn2)cc1Cl (stereo not given)
Activity [1]: 56.2%
Activity [2]: 84.6%
Activity [3]: 85.2%
Activity [4]: 54.6%

Nc1ncc(-c2ccc(S(=O)(=O)N3CCN(CCCCc4cn(CCOCCOCCOCCOCCOCCOCCNc5cccc6c5C(=O)N(C5CCC(=O)NC5=O)C6=O)nn4)CC3)cc2)nc1C(=O)Nc1cccnc1 (stereo not given)
DC50 [11]: 0.0404 µM
Activity [1]: 91.4%
Activity [5]: 71.9%
Activity [6]: 56.7%
DC50 [12]: 0.0666 µM
Activity [4]: 87%

COc1ccc(-c2ocnc2C(=O)NCCCc2cn(CCOCCOCCOCCOCCNc3cccc4c3C(=O)N(C3CCC(=O)NC3=O)C4=O)nn2)cc1I (stereo not given)
Activity [1]: 46.5%
Activity [4]: 25.9%

COc1ccc(-c2ocnc2C(=O)NCCCc2cn(CCOCCOCCOCCOCCOCCNc3cccc4c3C(=O)N(C3CCC(=O)NC3=O)C4=O)nn2)cc1I (stereo not given)
Activity [1]: 55.6%
Activity [4]: 56.5%

COc1ccc(-c2ocnc2C(=O)NCCCc2cn(CCOCCOCCOCCNc3cccc4c3C(=O)N(C3CCC(=O)NC3=O)C4=O)nn2)cc1I (stereo not given)
Activity [1]: 60.9%
Activity [4]: 22.8%

Nc1ncc(-c2ccc(S(=O)(=O)N3CCN(CCCCc4cn(CCOCCOCCOCCNc5cccc6c5C(=O)N(C5CCC(=O)NC5=O)C6=O)nn4)CC3)cc2)nc1C(=O)Nc1cccnc1 (stereo not given)
Activity [1]: 93.8%
Activity [5]: 69.3%
Activity [6]: 54.6%
Activity [4]: 89.7%

Nc1ncc(-c2ccc(S(=O)(=O)N3CCN(CCCCc4cn(CCOCCOCCNc5cccc6c5C(=O)N(C5CCC(=O)NC5=O)C6=O)nn4)CC3)cc2)nc1C(=O)Nc1cccnc1 (stereo not given)
Activity [1]: 95.1%
Activity [5]: 70.9%
Activity [6]: 38.2%
Activity [4]: 88.3%

COc1ccc(-c2ocnc2C(=O)NCCCc2cn(CCOCCOCCOCCOCCNc3cccc4c3C(=O)N(C3CCC(=O)NC3=O)C4=O)nn2)cc1Cl (stereo not given)
Activity [1]: 69.5%
Activity [4]: 49.2%

Nc1ncc(-c2ccc(S(=O)(=O)N3CCN(Cc4cn(CCOCCOCCOCCNC(=O)CNc5cccc6c5CN(C5CCC(=O)NC5=O)C6=O)nn4)CC3)cc2)nc1C(=O)Nc1cccnc1 (stereo not given)
Activity [1]: < 5%
Activity [4]: < 5%

Nc1ncc(-c2ccc(S(=O)(=O)N3CCN(CCc4cn(CCOCCOCCOCCNc5cccc6c5C(=O)N(C5CCC(=O)NC5=O)C6=O)nn4)CC3)cc2)nc1C(=O)Nc1cccnc1 (stereo not given)
Activity [1]: 90.7%
Activity [5]: 65%
Activity [6]: 51.6%
Activity [4]: 79.1%
